Measured values published in patent publication US8586613B2, “Pyridinium and quinolinium derivatives” (Universidad de Granada, priority 2004, dated 2013).

How the values were obtained:
[1] = tested on: HT-29 cells; test: HT-29 cell proliferation assay (Crystal Violet); type: cell-based, human; settings: six days of treatment
Experimental: The HT-29 cells were seeded in 24-well plates (35×10^3 cells/well) and were incubated for 24 hours. Then the cells were treated with different concentrations of ChoK inhibitors in the usual culture medium. Three days later, the wells were aspirated and both fresh medium and more amount of drug were added, and the cells were maintained for three more days. The quantification of the remaining cells in each well was carried out by means of the Crystal Violet method [Gillies, R. J., Didier, N., Denton, M. Anal. Biochem. 159, 109-113 (1986)], with some modifications [Hernández-Alcoceba, R., Saniger, L., Campos, J., Núñez, M. C., Khaless, F., Gallo, M. Á., Espinosa, A., Lacal, J. C. Oncogene, 15, 2289-2301 (1997)]. Briefly, the cells were washed with TD buffer and fixed with 1% glutaraldehyde for 15 minutes. After washing again with TD, the cell nuclei were coloured with 0.1% Crystal Violet for at least 30 minutes and washed three times with distilled water. The adsorbed colouring was resuspended in 10% acetic acid and the absorbance at 595 nm was determined in a spectrometer. […] This value determined by iterative curve adjustment. Two values are determined for each point of the curve, the experiment was repeated two or three times and the mean values were estimated. In the few cases in which the two values differed more than 50%, a third experiment was carried out to determine the real value. The IC50 value as a potency measurement is used to relate the biological activity of the compounds with their chemical structure.

[2] = tested on: H460 (human NSCLC cells) xenograft; test: Antitumor activity in lung xenografts (H460); type: in vivo, Balb/c nude mice
Experimental: (§1) Six-week-old Balb/c nude mice (Charles River) were used. The research protocol was approved by the National Biotechnology Centre (CNB) Ethics Committee and animals were maintained in accordance to the Spanish Law guidelines (12 h light/dark cycle, and ad libitum access to food and autoclaved water). Mice were inoculated s.c. in both lower flanks with 1×10^6 of H460 (human NSCLC cells) cells resuspended in 100 μL of serum free RPMI (Invitrogen) media. H460 cells were passed at 80% to 90% confluence every 2 to 3 days in RPMI (Invitrogen) supplemented with 10% fetal bovine serum (FBS, Invitrogen), to ensure exponential growth before using in the in vivo experiments.
(§2) Mice developing measurable subcutaneous tumors (˜0.15-0.2 cm^3) within 2 weeks were randomized to either treated or control groups (treated only with the drug vehicle). Tumor growth was monitored by measuring their size two to three times per week. Tumors were measured in two dimensions with digital calipers and tumor volume was estimated using the formula of a rational ellipse (D×d^2)/2, where D is the length of the long diameter and d is the short one. […]
Body weight of mice was assessed once per week and tumor volumes between the untreated and treated groups were compared and analyzed using the non parametric Mann-Whitney test. […]

[3] = tested on: MCF10-A (non-transformed epithelial cells); test: MTT cell viability, panel of cell lines; type: cell-based; settings: Non-tumorogenic, 72 h
Experimental: (§3) This effect can be observed in Table 1, where sensitivity to RSM932A of non-transformed MCF-10A epithelial cells is compared to 12 different human-tumor-derived cells from different tissues, including breast, lung, colon and pancreatic tumor cell lines.
(§4) The experimental conditions were as follows: cells were seeded at 10,000 cells per well into 96-well plates (BD, Falcon, Bioscience, San Jose, Calif., USA). Exponentially growing cells for 24 hours were exposed to different concentrations (quadruplicates for each concentration) of the compound for 72 hours. The colorimetric assay MTT (3-(4,5-dimethylthiazol-2-yl)-2,5-diphenyltetrazolium bromide was used to assess cell viability. The reaction correlates with absorbance read at 595 nm in a VersaMax Microplate Reader (Molecular Devices, Sunnyvale, Calif., USA). The IC50 (50% inhibitory concentration of a substance) is quantified by plotting the log OD (optical density) versus log drug concentration. IC50: Concentration of the compound that causes 50% growth inhibition with respect to control cells without drug.

[4] = tested on: Mia.PaCa.2; test: MTT cell viability, panel of cell lines; type: cell-based, human; settings: Mia.PaCa.2, Pancreas, 72 h
Experimental: as §3, §4

[5] = tested on: HT-29; test: MTT cell viability, panel of cell lines; type: cell-based, human; settings: HT-29, Colon, 72 h
Experimental: as §3, §4

[6] = tested on: MDA.MB.468; test: MTT cell viability, panel of cell lines; type: cell-based, human; settings: MDA.MB.468, Breast, 72 h
Experimental: as §3, §4

[7] = tested on: H1299; test: MTT cell viability, panel of cell lines; type: cell-based, human; settings: H1299, Lung, 72 h
Experimental: as §3, §4

[8] = tested on: SW620; test: MTT cell viability, panel of cell lines; type: cell-based, human; settings: SW620, Colon, 72 h
Experimental: as §3, §4

[9] = tested on: T47D; test: MTT cell viability, panel of cell lines; type: cell-based, human; settings: Breast, 72 h
Experimental: as §3, §4

[10] = tested on: DLD-1; test: MTT cell viability, panel of cell lines; type: cell-based, human; settings: DLD-1, Colon, 72 h
Experimental: as §3, §4

[11] = tested on: H460; test: MTT cell viability, panel of cell lines; type: cell-based, human; settings: H460, Lung, 72 h
Experimental: as §3, §4

[12] = tested on: MDA.MB.231; test: MTT cell viability, panel of cell lines; type: cell-based, human; settings: MDA.MB.231, Breast, 72 h
Experimental: as §3, §4

[13] = tested on: SkBr-3; test: MTT cell viability, panel of cell lines; type: cell-based, human; settings: SkBr-3, Breast, 72 h
Experimental: as §3, §4

[14] = tested on: H510; test: MTT cell viability, panel of cell lines; type: cell-based, human; settings: H510, Lung, 72 h
Experimental: as §3, §4

[15] = tested on: HCT-116; test: MTT cell viability, panel of cell lines; type: cell-based, human; settings: HCT-116, Colon, 72 h
Experimental: as §3, §4

[16] = tested on: MDA.MB.231 (breast cancer cell line) xenograft; test: Antitumor activity in breast xenografts (MDA.MB.231); type: in vivo, Balb/c nude mice
Experimental: as §1, with “of MDA.MB.231 (breast cancer cell line)” for “of H460 (human NSCLC cells)”, “free DMEN” for “free RPMI”, “media. MDA.MB.231” for “media. H460”, “in DMEN” for “in RPMI”, “using them for” for “using in”
as §2, with “tumors (˜0.1” for “tumors (˜0.15-0.2”, “within 3 to 4” for “within 2”
Body weight of mice was assessed once per week and tumor volumes of the untreated and treated groups were compared and analyzed using the non parametric Mann-Whitney test. […]

[17] = molecular target: T1, choline kinase from Plasmodium falcifarum (Pf-ChoK) (Plasmodium falciparum, UniProt Q8IM71); test: Sensitivity of Plasmodium falcifarum choline kinase (expressed in E. coli); type: biochemical; settings: read-out: IC50 (inhibition of Pf-ChoK)
T1 construct: made in house; host or cells: E. coli
T1 sequence (Q8IM71 entry or part of it): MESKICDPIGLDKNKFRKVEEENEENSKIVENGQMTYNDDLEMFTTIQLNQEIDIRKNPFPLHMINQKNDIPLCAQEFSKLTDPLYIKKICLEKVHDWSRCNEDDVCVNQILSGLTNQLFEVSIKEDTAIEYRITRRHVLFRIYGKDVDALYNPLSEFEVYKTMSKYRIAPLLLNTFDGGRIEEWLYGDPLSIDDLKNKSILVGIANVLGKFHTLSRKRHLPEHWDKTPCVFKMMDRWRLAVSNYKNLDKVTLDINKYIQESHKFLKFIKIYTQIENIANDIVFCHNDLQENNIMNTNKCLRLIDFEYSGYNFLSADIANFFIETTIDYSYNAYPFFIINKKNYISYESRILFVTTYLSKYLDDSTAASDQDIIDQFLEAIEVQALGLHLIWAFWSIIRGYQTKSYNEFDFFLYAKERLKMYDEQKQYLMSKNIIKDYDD
Experimental: The sensitivity of choline kinase of the parasite Plasmodium falcifarum (Pf) was also tested with choline kinase inhibitors. Choline kinase from Pf was expressed in E. coli (FIG. 3) and tested for activity (data not shown). Optimal conditions were established and the IC50 determined.

CN(c1ccc(Cl)cc1)c1cc[n+](Cc2ccc(-c3ccc(C[n+]4ccc(N(C)c5ccc(Cl)cc5)c5ccccc54)cc3)cc2)c2ccccc12.[Br-].[Br-] [Compound 7, 1,1′-(biphenyl-4,4′-diylmethylene)bis[4-(4-chloro-N-methylanilino)quinolinium]dibromide]
IC50 [1]: 1200 nM
Loss Weight ([2]; H460 xenograft mice, 1st day vs last day of treatment (23.2 g to 20.8 g)): 10.5%
percentage of inhibition of tumor growth ([2]; H460 xenograft, 6 mg/kg i.p., five days in a week plus a boost, after 22 days, relative to control mice): 64.5%
IC50 [3]: 7100 nM
IC50 [4]: 2300 nM
IC50 [5]: 1700 nM
IC50 [6]: 2400 nM
IC50 [7]: 1900 nM
IC50 [8]: 2100 nM
IC50 [9]: 2250 nM
IC50 [10]: 2100 nM
IC50 [11]: 1900 nM
IC50 [12]: 1300 nM
IC50 [13]: 3100 nM
IC50 [14]: 1400 nM
IC50 [15]: 1800 nM
Loss Weight ([16]; MDA.MB.231 xenograft mice, 1st day vs last day of treatment (24 g to 22.2 g)): 7.5%
percentage of inhibition of tumor growth ([16]; MDA.MB.231 xenograft, 5 mg/kg i.p., three days per week for three weeks, after 20 days, relative to control mice): 54.5%
IC50 [17]: 930 nM
